Where two headings read alike, the source gives them in different places. Blank lines part the entries; values can stand above or below the molecule they belong to.
Tests used:
Assay in all cases: biochemical
Set-up in all cases: DiscoveRx KINOMEscan active site-directed competition binding; percent of control kinase bound to immobilised ligand
FLT3(ITD,D835V) = target: T1, FLT3(ITD,D835V) (Homo sapiens, UniProt P36888, D835V/ITD)
T1 sequence (P36888 564-993 D835V): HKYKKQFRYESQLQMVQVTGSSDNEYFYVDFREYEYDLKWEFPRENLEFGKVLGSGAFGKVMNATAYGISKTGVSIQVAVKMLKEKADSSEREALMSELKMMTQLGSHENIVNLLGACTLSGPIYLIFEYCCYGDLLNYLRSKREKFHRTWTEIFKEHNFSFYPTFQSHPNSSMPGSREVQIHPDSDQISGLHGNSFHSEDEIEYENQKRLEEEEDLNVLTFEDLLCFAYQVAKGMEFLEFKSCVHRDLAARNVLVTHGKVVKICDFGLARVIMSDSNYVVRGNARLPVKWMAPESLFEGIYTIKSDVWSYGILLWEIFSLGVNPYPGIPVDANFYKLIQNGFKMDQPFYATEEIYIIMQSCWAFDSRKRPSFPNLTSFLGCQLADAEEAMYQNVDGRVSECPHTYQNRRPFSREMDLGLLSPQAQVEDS

LRRK2(G2019S) = LRRK2(G2019S) (Homo sapiens, UniProt Q5S007, G2019S)
Chain of LRRK2(G2019S) (Q5S007 whole entry G2019S): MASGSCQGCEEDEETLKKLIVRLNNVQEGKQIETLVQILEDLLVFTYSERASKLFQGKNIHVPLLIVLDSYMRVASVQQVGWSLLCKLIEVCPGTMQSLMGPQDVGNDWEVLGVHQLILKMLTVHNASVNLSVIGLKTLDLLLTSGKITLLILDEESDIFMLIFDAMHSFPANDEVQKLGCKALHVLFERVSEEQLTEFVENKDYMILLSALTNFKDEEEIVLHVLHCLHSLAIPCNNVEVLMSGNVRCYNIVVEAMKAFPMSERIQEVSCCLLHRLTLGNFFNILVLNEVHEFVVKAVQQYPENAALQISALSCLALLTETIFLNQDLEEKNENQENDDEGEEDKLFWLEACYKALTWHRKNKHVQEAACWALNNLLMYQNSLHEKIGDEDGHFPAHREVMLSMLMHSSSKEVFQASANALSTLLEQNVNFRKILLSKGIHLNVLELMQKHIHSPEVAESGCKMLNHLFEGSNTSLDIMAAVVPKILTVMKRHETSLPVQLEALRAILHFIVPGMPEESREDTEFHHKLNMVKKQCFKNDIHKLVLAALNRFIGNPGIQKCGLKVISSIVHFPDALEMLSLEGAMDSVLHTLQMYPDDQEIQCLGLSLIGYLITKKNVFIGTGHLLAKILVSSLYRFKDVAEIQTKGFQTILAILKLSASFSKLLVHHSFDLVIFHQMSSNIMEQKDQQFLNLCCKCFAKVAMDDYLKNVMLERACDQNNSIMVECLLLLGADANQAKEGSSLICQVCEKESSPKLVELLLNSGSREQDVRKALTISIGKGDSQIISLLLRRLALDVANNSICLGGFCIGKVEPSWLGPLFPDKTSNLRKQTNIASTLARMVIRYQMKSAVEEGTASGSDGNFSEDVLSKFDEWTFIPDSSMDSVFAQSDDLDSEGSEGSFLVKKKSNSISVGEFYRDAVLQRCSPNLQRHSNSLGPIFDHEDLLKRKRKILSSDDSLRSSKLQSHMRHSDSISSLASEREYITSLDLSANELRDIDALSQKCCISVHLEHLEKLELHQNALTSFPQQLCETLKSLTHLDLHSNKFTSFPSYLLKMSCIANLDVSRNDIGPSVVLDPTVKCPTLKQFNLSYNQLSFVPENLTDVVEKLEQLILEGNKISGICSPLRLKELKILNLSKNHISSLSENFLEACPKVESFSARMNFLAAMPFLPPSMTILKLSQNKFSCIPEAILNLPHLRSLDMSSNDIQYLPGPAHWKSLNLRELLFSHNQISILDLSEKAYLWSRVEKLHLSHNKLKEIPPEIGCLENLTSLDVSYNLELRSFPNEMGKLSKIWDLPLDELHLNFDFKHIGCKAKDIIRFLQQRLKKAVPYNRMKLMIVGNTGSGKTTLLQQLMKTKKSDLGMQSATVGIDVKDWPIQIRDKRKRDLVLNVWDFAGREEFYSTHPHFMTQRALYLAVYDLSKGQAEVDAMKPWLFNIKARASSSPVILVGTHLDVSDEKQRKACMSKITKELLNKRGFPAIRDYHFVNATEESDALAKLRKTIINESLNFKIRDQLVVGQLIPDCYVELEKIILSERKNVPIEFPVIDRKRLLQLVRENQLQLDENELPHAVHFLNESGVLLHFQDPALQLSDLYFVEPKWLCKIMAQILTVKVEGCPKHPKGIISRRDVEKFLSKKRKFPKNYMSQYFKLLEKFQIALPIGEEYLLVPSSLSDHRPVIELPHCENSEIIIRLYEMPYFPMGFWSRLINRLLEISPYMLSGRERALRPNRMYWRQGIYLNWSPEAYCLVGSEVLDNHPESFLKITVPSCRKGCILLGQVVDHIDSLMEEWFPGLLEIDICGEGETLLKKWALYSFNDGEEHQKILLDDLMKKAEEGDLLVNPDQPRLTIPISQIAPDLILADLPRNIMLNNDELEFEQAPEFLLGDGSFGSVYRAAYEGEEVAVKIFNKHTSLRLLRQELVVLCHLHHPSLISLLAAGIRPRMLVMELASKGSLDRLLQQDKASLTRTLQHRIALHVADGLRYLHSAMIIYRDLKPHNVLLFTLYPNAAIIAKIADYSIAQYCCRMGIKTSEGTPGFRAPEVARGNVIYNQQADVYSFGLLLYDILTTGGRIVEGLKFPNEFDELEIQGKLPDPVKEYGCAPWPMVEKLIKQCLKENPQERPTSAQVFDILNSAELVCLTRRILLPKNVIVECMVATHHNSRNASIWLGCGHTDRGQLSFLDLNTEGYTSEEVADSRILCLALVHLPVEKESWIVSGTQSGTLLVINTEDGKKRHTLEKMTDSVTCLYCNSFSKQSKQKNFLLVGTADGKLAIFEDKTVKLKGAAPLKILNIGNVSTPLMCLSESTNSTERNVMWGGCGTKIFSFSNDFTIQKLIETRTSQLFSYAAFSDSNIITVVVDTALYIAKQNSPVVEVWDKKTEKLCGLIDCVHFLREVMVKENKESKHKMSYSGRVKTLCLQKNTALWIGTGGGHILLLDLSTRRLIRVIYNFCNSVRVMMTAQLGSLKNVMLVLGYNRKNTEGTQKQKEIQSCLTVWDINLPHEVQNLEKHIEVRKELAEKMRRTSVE

MET = MET (Homo sapiens, UniProt P08581)
Chain of MET (P08581 whole entry): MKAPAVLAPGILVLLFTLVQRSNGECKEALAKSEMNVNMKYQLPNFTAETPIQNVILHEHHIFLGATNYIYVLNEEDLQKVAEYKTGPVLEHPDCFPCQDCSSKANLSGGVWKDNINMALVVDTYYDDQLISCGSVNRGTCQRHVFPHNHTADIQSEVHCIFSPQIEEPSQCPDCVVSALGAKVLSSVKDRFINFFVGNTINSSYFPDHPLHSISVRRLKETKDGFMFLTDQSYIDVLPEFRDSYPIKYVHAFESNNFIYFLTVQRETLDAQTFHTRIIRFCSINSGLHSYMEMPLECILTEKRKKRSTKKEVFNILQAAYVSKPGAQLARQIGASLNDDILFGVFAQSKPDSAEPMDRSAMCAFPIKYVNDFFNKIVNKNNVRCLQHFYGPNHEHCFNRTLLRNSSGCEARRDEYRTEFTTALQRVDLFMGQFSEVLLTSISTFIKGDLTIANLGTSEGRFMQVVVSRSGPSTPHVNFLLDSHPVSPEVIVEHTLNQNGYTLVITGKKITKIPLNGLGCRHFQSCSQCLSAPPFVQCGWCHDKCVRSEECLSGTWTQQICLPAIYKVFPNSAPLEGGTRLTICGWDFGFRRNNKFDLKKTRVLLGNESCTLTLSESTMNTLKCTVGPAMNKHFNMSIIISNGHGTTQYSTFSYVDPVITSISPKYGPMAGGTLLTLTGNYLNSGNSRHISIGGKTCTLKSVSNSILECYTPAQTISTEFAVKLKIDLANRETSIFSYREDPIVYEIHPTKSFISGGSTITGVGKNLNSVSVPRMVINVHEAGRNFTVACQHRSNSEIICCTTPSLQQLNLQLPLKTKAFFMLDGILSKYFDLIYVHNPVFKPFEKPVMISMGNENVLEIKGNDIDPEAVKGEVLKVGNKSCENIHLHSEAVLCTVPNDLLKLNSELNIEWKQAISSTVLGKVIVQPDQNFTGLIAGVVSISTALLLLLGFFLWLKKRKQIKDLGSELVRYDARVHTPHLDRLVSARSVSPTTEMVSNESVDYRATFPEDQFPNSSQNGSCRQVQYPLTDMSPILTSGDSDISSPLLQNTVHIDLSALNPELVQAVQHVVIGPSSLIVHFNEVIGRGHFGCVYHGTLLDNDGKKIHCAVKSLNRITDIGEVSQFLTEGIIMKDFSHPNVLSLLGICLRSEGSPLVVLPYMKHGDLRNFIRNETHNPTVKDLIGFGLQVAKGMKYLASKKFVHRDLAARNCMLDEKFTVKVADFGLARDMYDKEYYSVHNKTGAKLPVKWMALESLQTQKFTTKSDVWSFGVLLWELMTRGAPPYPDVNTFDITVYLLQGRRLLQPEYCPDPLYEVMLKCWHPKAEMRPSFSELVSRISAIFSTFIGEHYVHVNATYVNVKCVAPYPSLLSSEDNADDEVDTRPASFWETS

EGFR = EGFR (Homo sapiens, UniProt P00533)
Chain of EGFR (P00533 whole entry): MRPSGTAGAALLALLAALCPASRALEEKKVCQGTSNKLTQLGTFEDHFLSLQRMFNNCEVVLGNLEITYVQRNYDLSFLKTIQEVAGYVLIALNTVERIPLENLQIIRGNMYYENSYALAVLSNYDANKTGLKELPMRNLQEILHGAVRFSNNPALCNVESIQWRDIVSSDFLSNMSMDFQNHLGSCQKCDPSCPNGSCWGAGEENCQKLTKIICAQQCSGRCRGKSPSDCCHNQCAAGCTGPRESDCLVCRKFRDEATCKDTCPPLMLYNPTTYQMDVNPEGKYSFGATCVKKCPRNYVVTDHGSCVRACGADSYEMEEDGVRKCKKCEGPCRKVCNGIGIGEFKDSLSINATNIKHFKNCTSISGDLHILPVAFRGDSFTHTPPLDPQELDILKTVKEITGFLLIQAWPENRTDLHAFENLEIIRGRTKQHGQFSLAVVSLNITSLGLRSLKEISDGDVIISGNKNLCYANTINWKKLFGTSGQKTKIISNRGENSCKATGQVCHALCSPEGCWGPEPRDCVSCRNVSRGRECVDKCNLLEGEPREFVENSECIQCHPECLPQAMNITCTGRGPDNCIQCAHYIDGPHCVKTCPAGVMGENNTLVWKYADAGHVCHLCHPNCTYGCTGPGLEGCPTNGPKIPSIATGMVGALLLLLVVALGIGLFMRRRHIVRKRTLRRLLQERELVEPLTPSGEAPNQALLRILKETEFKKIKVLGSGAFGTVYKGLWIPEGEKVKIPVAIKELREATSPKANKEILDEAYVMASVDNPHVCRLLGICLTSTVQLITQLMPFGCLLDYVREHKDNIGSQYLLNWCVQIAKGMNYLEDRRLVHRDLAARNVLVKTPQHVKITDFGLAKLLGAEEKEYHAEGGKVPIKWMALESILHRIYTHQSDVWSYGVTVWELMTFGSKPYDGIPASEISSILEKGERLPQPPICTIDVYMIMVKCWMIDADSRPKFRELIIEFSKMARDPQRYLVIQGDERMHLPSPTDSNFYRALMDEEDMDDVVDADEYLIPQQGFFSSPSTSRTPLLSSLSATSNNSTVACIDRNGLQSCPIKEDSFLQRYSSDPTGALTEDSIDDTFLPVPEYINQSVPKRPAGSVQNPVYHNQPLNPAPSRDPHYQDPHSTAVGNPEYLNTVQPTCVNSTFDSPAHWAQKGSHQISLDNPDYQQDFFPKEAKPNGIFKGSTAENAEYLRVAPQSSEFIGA

EPHA1 = target: T2, EPHA1 (Homo sapiens, UniProt P21709)
T2 sequence (P21709 1-976): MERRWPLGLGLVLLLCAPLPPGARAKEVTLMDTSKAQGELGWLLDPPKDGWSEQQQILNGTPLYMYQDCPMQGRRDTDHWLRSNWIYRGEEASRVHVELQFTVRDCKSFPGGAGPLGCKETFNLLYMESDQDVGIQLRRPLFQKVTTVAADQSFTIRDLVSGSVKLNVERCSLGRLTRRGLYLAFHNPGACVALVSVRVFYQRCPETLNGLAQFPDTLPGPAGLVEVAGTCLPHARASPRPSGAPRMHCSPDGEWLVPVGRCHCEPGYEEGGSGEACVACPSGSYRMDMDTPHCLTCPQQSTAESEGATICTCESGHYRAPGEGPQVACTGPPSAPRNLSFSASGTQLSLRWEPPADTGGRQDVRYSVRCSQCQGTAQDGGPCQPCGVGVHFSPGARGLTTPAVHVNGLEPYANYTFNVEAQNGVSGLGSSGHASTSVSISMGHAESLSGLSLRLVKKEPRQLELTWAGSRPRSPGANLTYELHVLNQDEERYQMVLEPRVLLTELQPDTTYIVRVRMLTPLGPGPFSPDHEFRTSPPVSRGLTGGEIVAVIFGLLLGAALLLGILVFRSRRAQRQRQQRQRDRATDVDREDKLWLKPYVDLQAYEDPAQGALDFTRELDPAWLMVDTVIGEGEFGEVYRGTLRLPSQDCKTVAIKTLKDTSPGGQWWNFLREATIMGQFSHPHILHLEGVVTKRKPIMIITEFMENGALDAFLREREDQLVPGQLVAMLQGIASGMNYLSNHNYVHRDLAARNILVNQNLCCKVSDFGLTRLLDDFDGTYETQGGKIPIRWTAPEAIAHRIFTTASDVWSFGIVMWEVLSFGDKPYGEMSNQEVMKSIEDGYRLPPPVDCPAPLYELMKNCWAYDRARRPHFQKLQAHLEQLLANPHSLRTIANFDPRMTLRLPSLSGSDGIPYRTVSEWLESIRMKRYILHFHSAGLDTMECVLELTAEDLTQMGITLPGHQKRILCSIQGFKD

MARK4 = target: T3, MARK4 (Homo sapiens, UniProt Q96L34)
T3 sequence (Q96L34 1-752): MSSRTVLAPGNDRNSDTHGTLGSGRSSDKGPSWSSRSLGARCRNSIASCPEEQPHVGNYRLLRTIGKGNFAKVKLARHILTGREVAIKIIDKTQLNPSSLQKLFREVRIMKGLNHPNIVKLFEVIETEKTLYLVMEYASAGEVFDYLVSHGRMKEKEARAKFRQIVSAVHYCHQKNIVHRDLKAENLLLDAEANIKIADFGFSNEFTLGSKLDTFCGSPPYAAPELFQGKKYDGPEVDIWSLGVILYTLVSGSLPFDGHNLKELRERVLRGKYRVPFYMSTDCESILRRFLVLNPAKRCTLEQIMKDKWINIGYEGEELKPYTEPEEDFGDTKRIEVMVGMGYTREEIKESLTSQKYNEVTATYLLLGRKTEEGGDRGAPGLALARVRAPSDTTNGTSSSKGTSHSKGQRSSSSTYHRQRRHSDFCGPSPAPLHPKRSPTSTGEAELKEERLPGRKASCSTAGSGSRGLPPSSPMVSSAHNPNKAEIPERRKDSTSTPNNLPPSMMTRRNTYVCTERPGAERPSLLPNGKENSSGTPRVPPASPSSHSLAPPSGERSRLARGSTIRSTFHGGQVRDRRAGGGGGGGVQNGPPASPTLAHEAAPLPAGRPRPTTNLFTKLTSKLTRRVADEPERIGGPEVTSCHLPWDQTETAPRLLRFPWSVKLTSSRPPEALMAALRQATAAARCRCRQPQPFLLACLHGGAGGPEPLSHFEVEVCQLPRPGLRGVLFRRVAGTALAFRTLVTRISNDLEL

[1] = target: T4, RSK3(Kin.Dom.1-N-terminal) (Homo sapiens, UniProt Q15349)
T4 construct: gene RPS6KA2; Kin.Dom.1-N-terminal

CDK4-cyclinD1 = target: T5, CDK4-cyclinD1 (Homo sapiens, UniProt P11802)
T5 construct: cyclinD1

[2] = read-out: Olaparib / %Ctrl @ 10000nM
[3] = read-out: Talazoparib (BMN 673) / %Ctrl @ 10000nM
[4] = read-out: Rucaparib / %Ctrl @ 10000nM, binding competition, % of control
[5] = read-out: Niraparib (MK-4827) / %Ctrl @ 10000nM

- percent of control binding at 10 µM (FLT3(ITD,D835V); [2]): 100%
- percent of control binding at 10 µM (LRRK2(G2019S); [2]): 84%
- percent of control binding at 10 µM (MET; [2]): 91%
- percent of control binding at 10 µM (EGFR; [2]): 82%
- percent of control binding at 10 µM (EPHA1; [2]): 92%
- percent of control binding at 10 µM (MARK4; [2]): 88%
- percent of control binding at 10 µM [1, 2]: 97%
- percent of control binding at 10 µM (CDK4-cyclinD1; [2]): 80%
Compound: O=C(c1cc(Cc2n[nH]c(=O)c3ccccc23)ccc1F)N1CCN(C(=O)C2CC2)CC1 [Olaparib]

- percent of control binding at 10 µM (FLT3(ITD,D835V); [3]): 100%
- percent of control binding at 10 µM (LRRK2(G2019S); [3]): 100%
- percent of control binding at 10 µM (MET; [3]): 99%
- percent of control binding at 10 µM (EGFR; [3]): 85%
- percent of control binding at 10 µM (EPHA1; [3]): 98%
- percent of control binding at 10 µM (MARK4; [3]): 100%
- percent of control binding at 10 µM [1, 3]: 84%
- percent of control binding at 10 µM (CDK4-cyclinD1; [3]): 70%
Compound: Cn1ncnc1[C@H]1c2n[nH]c(=O)c3cc(F)cc(c23)N[C@@H]1c1ccc(F)cc1 [Talazoparib]

- Rucaparib / %Ctrl @ 10000nM (FLT3(ITD,D835V); binding competition, % of control): 8.1%
- percent of control binding at 10 µM (LRRK2(G2019S); [4]): 87%
- percent of control binding at 10 µM (MET; [4]): 92%
- percent of control binding at 10 µM (EGFR; [4]): 87%
- percent of control binding at 10 µM (EPHA1; [4]): 99%
- percent of control binding at 10 µM (MARK4; [4]): 86%
- percent of control binding at 10 µM [1, 4]: 99%
- percent of control binding at 10 µM (CDK4-cyclinD1; [4]): 25%
Compound: CNCc1ccc(-c2[nH]c3cc(F)cc4c3c2CCNC4=O)cc1 [Rucaparib]

Compound: NC(=O)c1cccc2cn(-c3ccc([C@@H]4CCCNC4)cc3)nc12 [Niraparib]
- percent of control binding at 10 µM (FLT3(ITD,D835V); [5]): 36%
- percent of control binding at 10 µM (LRRK2(G2019S); [5]): 89%
- percent of control binding at 10 µM (MET; [5]): 92%
- percent of control binding at 10 µM (EGFR; [5]): 67%
- percent of control binding at 10 µM (EPHA1; [5]): 86%
- percent of control binding at 10 µM (MARK4; [5]): 98%
- percent of control binding at 10 µM [1, 5]: 74%
- percent of control binding at 10 µM (CDK4-cyclinD1; [5]): 82%

Reference: PMC7026418, “The kinase polypharmacology landscape of clinical PARP inhibitors” (Scientific Reports, 2020)
